Two compounds from patent EP0419308A2, “Use of glutamic acid or gum arabic as anti-complement agent” (Chevance, Léon Georges, priority 1989, dated 1991) can be followed below.

The experiment has as its system complément. As to the kind of experiment: Anti-complement activity: inhibition of complement in fresh serum (technique of Chevance & Etievant / Rapp & Borsos). It counts as biochemical. To be noted: fresh serum diluted 1/40, 37°C, 45 minutes. An excerpt:
L'activité anti-complément des substances visées par l'invention peut être mise en évidence suivant la technique décrite dans l'article de L-G-CHEVANCE et M. ETIEVANT "Etude d'un peptide (sel de magnésium de l' acide N-Acétyl (α-β)- Aspartyl-glutamique) mise en évidence de la protection contre les destructions cellulaires locales provoquées par l'activation in situ du complément" (J. Pharmacol. Paris 1986 n° 4, 676-685), ainsi que dans la parution de J. RAPP et T. BORSOS "Molecular basis of complement action" Appleton Century Crofts publ. 1970.
Après titrage du complément, on incube à 37°C pendant 45 minutes des prélèvements aliquots de 40 µl de sérum frais dilué au 1/40e, mélangés chacun respectivement à 40 µl de solutions aqueuses de concentrations croissantes de chaque substance analysée : acide L-glutamique, glutamate de sodium, gomme arabique et d'un mélange, à concentrations égales de gomme arabique et de glutamate de sodium.

As for `N[C@@H](CCC(=O)O)C(=O)O` [Acide glutamique, acide L-glutamique], the “% inhibition” value is, setting by setting: (Concentration 0,05 %) 0,033%; (Concentration 0,5 %) 0,092%; (Concentration 0,25 %) 0,000%; (Concentration 1 %) 0,077%; (Concentration 1,5 %) 0,369%; (Concentration 2 %) 0,661%.
On to `N[C@@H](CCC(=O)O)C(=O)O` [Glutamate de sodium, L-glutamate de sodium], for which the “% inhibition” value is on record as 0,175% (Concentration 0,5 %); 0,112% (Concentration 0,25 %); 0,216% (Concentration 1 %); 0,101% (Concentration 0,062 %); 0,116% (Concentration 0,125 %).
